# Data reported in ChEMBL document CHEMBL1201862, “PubChem BioAssay data set” (2004).
#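 48-hour exposure; five concentrations; linearly interpolated endpoints. Here, GI50 denotes the concentration required for 50% inhibition of growth.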 Calls of active or inactive are those of the source. Cut-off read from the data, not from the text of the source: active = GI50 up to about 1.1 µM and inactive = higher.
# Tests used:
# Assay in all cases: growth of human tumour cells (NCI), 48 h
# [1] = test system: A498
# [2] = test system: A549
# [3] = test system: ACHN
# [4] = test system: CCRF-CEM
# [5] = test system: COLO 205
# [6] = test system: EKVX
# [7] = test system: HCT-116
# [8] = test system: HOP-92
# [9] = test system: LXFL 529
# [10] = test system: M14
# [11] = test system: Malme-3M
# [12] = test system: OVCAR-4
# [13] = test system: OVCAR-8
# [14] = test system: SK-MEL-28
# [15] = test system: SK-OV-3
# [16] = test system: U-251
# [17] = test system: UACC-257
# [18] = test system: SR
Structure (SMILES),GI50 [1],GI50 [2],GI50 [3],GI50 [4],GI50 [5],GI50 [6],GI50 [7],GI50 [8],GI50 [9],GI50 [10],GI50 [11],GI50 [12],GI50 [13],GI50 [14],GI50 [15],GI50 [16],GI50 [17],GI50 [18]
COC(=O)CCC(=O)CC(=O)C(=O)Nc1ccc(F)cc1,> 100 µM (inactive),> 100 µM (inactive),> 100 µM (inactive),> 100 µM (inactive),> 100 µM (inactive),> 100 µM (inactive),> 100 µM (inactive),> 100 µM (inactive),> 100 µM (inactive),> 100 µM (inactive),> 100 µM (inactive),> 100 µM (inactive),> 100 µM (inactive),> 100 µM (inactive),> 100 µM (inactive),> 100 µM (inactive),> 100 µM (inactive),
COc1ccc2c(CCNC(=O)/C=C/c3ccccc3)c(C(C)=O)[nH]c2c1[N+](=O)[O-],17.3 µM (inactive),8.05 µM (inactive),50.4 µM (inactive),5.35 µM (inactive),8.85 µM (inactive),,13.7 µM (inactive),,10 µM (inactive),7.33 µM (inactive),,21.8 µM (inactive),17.9 µM (inactive),14.5 µM (inactive),,34.2 µM (inactive),8.95 µM (inactive),7.28 µM (inactive)
COC(=O)C1=C(C(=O)OC)C2(C(=O)OC)OC1(OC)C(C1(C(=O)OC)C(C(=O)OC)=C1C(=O)OC)=C2C(=O)OC (stereo unspecified),,> 100 µM (inactive),> 100 µM (inactive),> 100 µM (inactive),> 100 µM (inactive),> 100 µM (inactive),> 100 µM (inactive),> 100 µM (inactive),> 100 µM (inactive),> 100 µM (inactive),> 100 µM (inactive),,> 100 µM (inactive),> 100 µM (inactive),> 100 µM (inactive),> 100 µM (inactive),> 100 µM (inactive),> 100 µM (inactive)
COC(=O)C1=Cc2cn(S(=O)(=O)c3ccc(C)cc3)c3cccc(c23)C(C=C(C)C)N1C(C)=O (stereo unspecified),68.9 µM (inactive),13.6 µM (inactive),18.8 µM (inactive),7.87 µM (inactive),4.71 µM (inactive),> 100 µM (inactive),11.1 µM (inactive),12.7 µM (inactive),32 µM (inactive),30.2 µM (inactive),16.8 µM (inactive),8.67 µM (inactive),84.9 µM (inactive),> 10 µM (inactive),> 100 µM (inactive),45.6 µM (inactive),11.3 µM (inactive),12.4 µM (inactive)
CC(C)(C)OC(=O)NCCc1cccc2c1oc1c(CCC(=O)O)cccc12,> 100 µM (inactive),> 100 µM (inactive),> 100 µM (inactive),> 100 µM (inactive),> 100 µM (inactive),,> 100 µM (inactive),> 100 µM (inactive),> 100 µM (inactive),> 100 µM (inactive),> 100 µM (inactive),> 100 µM (inactive),> 100 µM (inactive),> 100 µM (inactive),> 100 µM (inactive),> 100 µM (inactive),> 100 µM (inactive),> 100 µM (inactive)
Cc1[nH]c(O)nc1C(=O)c1ccc(-n2ccnc2)cc1,> 100 µM (inactive),> 100 µM (inactive),> 100 µM (inactive),,,,> 100 µM (inactive),,> 100 µM (inactive),> 100 µM (inactive),> 100 µM (inactive),> 100 µM (inactive),> 100 µM (inactive),> 100 µM (inactive),> 100 µM (inactive),> 100 µM (inactive),> 100 µM (inactive),> 100 µM (inactive)
CN(C)c1cccc(-c2cc(O)c3cc4c(cc3n2)OCO4)c1,0.137 µM (active),0.343 µM (active),0.378 µM (active),0.204 µM (active),0.2 µM (active),25.6 µM (inactive),0.138 µM (active),2.15 µM (inactive),0.13 µM (active),0.139 µM (active),0.131 µM (active),0.705 µM (active),0.363 µM (active),0.0553 µM (active),0.123 µM (active),0.247 µM (active),0.916 µM (active),0.708 µM (active)
O=C1c2ccccc2C(=O)c2c(O)ccc(O)c21 [QUINIZARIN],> 100 µM (inactive),81.3 µM (inactive),> 100 µM (inactive),> 100 µM (inactive),> 100 µM (inactive),58.7 µM (inactive),> 100 µM (inactive),> 100 µM (inactive),> 100 µM (inactive),> 100 µM (inactive),> 100 µM (inactive),> 100 µM (inactive),> 100 µM (inactive),> 100 µM (inactive),> 100 µM (inactive),> 100 µM (inactive),> 100 µM (inactive),
